Reference: publication PMC3734253, “A Novel Color Change Mechanism for Breast Cancer Biomarker Detection: Naphthoquinones as Specific Ligands of Human Arylamine N-Acetyltransferase 1” (PLoS ONE, 2013)
One block for each compound: values may come before it.

Columns and labels:
[1] = target: T1, hNAT1 (human arylamine N-acetyltransferase 1) (Homo sapiens, UniProt P18440); assay: AcCoA hydrolysis assay, inhibition of hNAT1; assay type: biochemical; conditions: for IC50: pABA 500 μM, AcCoA 400 μM, pH 8.0, 5% DMSO
T1 construct: made in house
T1 sequence (P18440 1-290): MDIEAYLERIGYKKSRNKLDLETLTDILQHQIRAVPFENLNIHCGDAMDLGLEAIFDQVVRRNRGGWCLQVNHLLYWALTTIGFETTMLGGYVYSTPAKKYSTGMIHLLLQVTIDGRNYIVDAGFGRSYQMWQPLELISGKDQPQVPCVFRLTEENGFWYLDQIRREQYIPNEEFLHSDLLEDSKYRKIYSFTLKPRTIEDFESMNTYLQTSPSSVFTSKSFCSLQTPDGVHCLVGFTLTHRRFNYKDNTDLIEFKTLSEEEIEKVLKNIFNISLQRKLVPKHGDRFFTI
Description: (§1) NAT activity was determined as previously described,[23]; a full procedure is outlined in the (File S1).
(§2) NAT activity was determined by AcCoA hydrolysis assays. The NAT isoform (100 ng) was pre-incubated with para-amino benzoic acid (500 μM) in the assay buffer (5% DMSO/95% 20mM aq Tris.HCl, pH 8.0) for 5 min. at 37 °C in a 96-well plate (Corning). Pre-warmed AcCoA (400 μM, 37 °C) in assay buffer was added to start the reaction (final volume of 100 μL), which was allowed to proceed at 37 °C. Simultaneous quenching and color development was achieved by addition of 25 μL DTNB solution (5 mM DTNB in 100 mM aq Tris.HCl, 6.4 M guanidine.HCl, pH 7.5). The absorbance was immediately read at 405 nm using a plate reader (Tecan Sunrise). The rate of reaction was determined by reference to a standard curve and controls with buffer alone were carried out. For detection of inhibition, the inhibitors tested were dissolved in DMSO and the final percentage of DMSO in the assay was 5% (v/v). […] A dose-response function was used as a model of regression for the data and the curves were estimated by the method of the least squares analysis.

mNat2 [2] = target: T2, mNat2 (Mus musculus, UniProt P50295); assay: Visible spectrum of compound in presence of mNat2; assay type: binding; conditions: with mNat2, 20 mM Tris.HCl pH 8
T2 construct: hexa-histidine tag (cleaved yes); made in house; host or cells: E. coli Rosetta(DE3)pLysS
T2 sequence (P50295 1-290): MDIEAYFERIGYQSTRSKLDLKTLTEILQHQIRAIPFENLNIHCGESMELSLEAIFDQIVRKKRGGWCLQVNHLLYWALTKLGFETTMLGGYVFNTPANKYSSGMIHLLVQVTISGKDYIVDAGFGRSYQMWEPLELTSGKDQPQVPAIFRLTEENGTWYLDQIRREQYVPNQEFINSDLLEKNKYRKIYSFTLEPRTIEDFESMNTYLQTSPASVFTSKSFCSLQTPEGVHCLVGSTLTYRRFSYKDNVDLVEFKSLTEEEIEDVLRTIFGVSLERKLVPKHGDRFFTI
Description: (§3) Visible spectra of each compound were recorded with a U-2001 spectrophotometer (Hitachi) using 1 mL plastic cells of 1 cm path-length (FisherBrand) or 50 μL UVettes® (Eppendorf). Concentrations of inhibitors and protein used are given in the appropriate figure legends. All spectra were blank-corrected.
(§4) 15 μM compound 4 was prepared using different conditions: 20 mM aq Tris.HCl, pH 8, 5% DMSO (v/v); 80 mM aq NaOH, pH 13.75, 5% DMSO (v/v); with hNAT1 (30 μM) in 20 mM aq Tris.HCl, pH 8, 5% DMSO (v/v); with mNat2 (30 μM) 20 mM aq Tris.HCl, pH 8, 5% DMSO (v/v). Wavelength scans from 800 to 350 nm were recorded against the respective blanks containing no compound 4.
as §4, with “5” for “4”, “5.” for “4.”

mNat2 [3] = target: T2, mNat2; assay: AcCoA hydrolysis assay, inhibition of mNat2 (wild type); assay type: biochemical; conditions: for IC50: mNat2_WT, pABA 500 μM, AcCoA 400 μM, pH 8.0, 5% DMSO
hNAT2 [4] = target: T3, hNAT2 (Homo sapiens, UniProt P11245); assay: AcCoA hydrolysis assay, inhibition of hNAT2; assay type: biochemical; conditions: for enzyme activity retained: hNAT2, inhibitor concentration 30 µM
T3 sequence (P11245 1-290): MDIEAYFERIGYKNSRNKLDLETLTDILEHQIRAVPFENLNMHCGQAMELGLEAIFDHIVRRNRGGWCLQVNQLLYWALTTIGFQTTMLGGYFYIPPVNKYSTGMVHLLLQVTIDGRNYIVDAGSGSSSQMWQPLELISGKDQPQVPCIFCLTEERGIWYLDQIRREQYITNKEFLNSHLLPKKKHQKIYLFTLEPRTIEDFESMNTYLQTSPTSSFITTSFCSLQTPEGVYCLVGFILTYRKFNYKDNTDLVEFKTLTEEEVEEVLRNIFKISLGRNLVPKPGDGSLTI
Description: as §1, §2

[5] = Solubility under NMR conditions for active protein; assay type: physicochemical; conditions: 5% DMSO-d6/95% D2O, for 15N-NMR
hNAT1 = target: T4, hNAT1 (Homo sapiens, UniProt P18440); assay: Visible spectrum of compound in presence of hNAT1; assay type: binding; conditions: with hNAT1, 20 mM Tris.HCl pH 8
T4 construct: made in house
T4 sequence (P18440 1-290): T1 sequence (P18440 1-290)
Description: as §3, §4
as §4, with “5” for “4”, “5.” for “4.”

hNAT2 [6] = target: T3, hNAT2; assay: Visible spectrum of compound in presence of hNAT2; assay type: binding; conditions: with hNAT2
Description: as §3

mNat1 [7] = target: T5, mNat1 (Mus musculus, UniProt P50294); assay: Visible spectrum of compound in presence of mNat1; assay type: binding; conditions: with mNat1
T5 construct: hexa-histidine tag (cleaved yes); made in house; host or cells: E. coli Rosetta(DE3)pLysS
T5 sequence (P50294 1-290): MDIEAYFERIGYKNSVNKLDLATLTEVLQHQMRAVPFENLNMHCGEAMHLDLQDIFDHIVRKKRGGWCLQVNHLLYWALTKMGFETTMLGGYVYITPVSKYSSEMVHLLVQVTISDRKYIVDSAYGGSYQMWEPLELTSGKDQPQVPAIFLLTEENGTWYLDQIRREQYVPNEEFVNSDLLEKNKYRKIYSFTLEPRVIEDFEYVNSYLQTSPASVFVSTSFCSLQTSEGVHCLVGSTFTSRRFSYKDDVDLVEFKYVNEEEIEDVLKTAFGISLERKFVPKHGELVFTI
Description: as §3

mNat1 [8] = target: T5, mNat1; assay: AcCoA hydrolysis assay, inhibition of mNat1; assay type: biochemical; conditions: enzyme mNat1, read-out: % Inhibition at 30 μM of 1
Description: as §1, §2

[9] = Acid-base (pH) titration by visible spectra; assay type: physicochemical; conditions: panel of buffered solutions at diverse pHs with 5% DMSO; 5% DMSO/95% H2O
Description: 5 μL of 1 in DMSO (final concentration 0.1 mM) was added to 95 μL of a panel of solutions buffered at diverse pHs in a flat-bottomed 96-well plate (Corning). Visible spectra of the samples were recorded from 800 to 350 nm on the FLUOstar Omega plate reader (BMG Labtech), then the λmax were determined for all spectra and plotted against pH. A sigmoidal titration curve was fitted using GraphPad®.

SMILES: Cc1cc(C)cc(NC2=C(N(C)S(=O)(=O)c3ccccc3)C(=O)c3ccccc3C2=O)c1 [compound 3, N-(3-(3’’,5’’-Dimethylphenylamino)-1,4-dioxo-1,4-dihydronaphthalen-2-yl)-N-methylbenzenesulfonamide]
- λmax in presence of hNAT1 (hNAT1): 476 nm
- λmax in presence of mNat2 (mNat2 [2]): 490 nm
- enzyme activity retained (hNAT2 [4]): more than 90%

SMILES: Cc1cc(C)cc(NC2=C(OS(=O)(=O)c3ccccc3)C(=O)c3ccccc3C2=O)c1 [compound 5, 3-((3’’,5’’-Dimethylphenyl)amino)-1,4-dioxo-1,4-dihydronaphthalen-2-ylbenzenesulfonate]
- λmax in presence of hNAT1 (hNAT1): 492 nm
- IC50 [1]: 93 µM
- λmax in presence of mNat2 (mNat2 [2]): 492 nm
- IC50 (mNat2 [3]): > 150 µM

SMILES: Cc1cc(C)cc(NC2=C(NS(=O)(=O)c3ccccc3)C(=O)c3ccccc3C2=O)c1 [compound 1, N-(3-(3’’,5’’-Dimethylphenylamino)-1,4-dioxo-1,4-dihydronaphthalen-2-yl)benzenesulfonamide]
- λmax in presence of hNAT1 (hNAT1): 585 nm
- inhibition at 30 µM ([1]; 30 μM, enzyme hNAT1): 93.3 ± 0.9%
- IC50 [1]: 5.3 µM
- λmax in presence of mNat2 (mNat2 [2]): 625 nm
- λmax in presence of hNAT2 (hNAT2 [6]): 498 nm
- λmax in presence of mNat1 (mNat1 [7]): 498 nm
- inhibition at 30 µM (mNat2 [3]; 30 μM, enzyme mNat2, read-out: % Inhibition at 30 μM of 1): 92.4 ± 4.4%
- Ki (mNat2 [3]; competitive towards pABA (25-250 µM), AcCoA 400 µM, 9 ng pure recombinant mNat2, Dixon plot, read-out: Ki (app.)): 420 nM
- IC50 (mNat2 [3]): 1.9 µM
- inhibition at 30 µM (hNAT2 [4]; 30 μM, enzyme hNAT2, read-out: % Inhibition at 30 μM of 1): 10.6 ± 2%
- inhibition at 30 µM (mNat1 [8]): 37.6 ± 1.6%
- pKa [9]: ~9.2

Further lines, results first:

- melting point: 71 to 74 °C
- IC50 [1]: 3.6 µM
- λmax in presence of mNat2 (mNat2 [2]): 548 nm
- IC50 (mNat2 [3]): 14.6 µM
- enzyme activity retained (hNAT2 [4]): more than 90%
SMILES: COS(=O)(=NC1=C(Nc2cc(C)cc(C)c2)C(=O)c2ccccc2C1=O)c1ccccc1 (stereo not shown) [compound 4, Methyl-N-3-(3’’,5’’-dimethylphenylamino)-1,4-dioxo-1,4-dihydronaphthalen-2-ylbenzenesulfonimidate]

- solubility [5]: insufficiently soluble
SMILES: Cc1cc(C)cc(NC2=C([15NH]S(=O)(=O)c3ccccc3)C(=O)c3ccccc3C2=O)c1 [compound 2, N-(3-(3’’,5’’-Dimethylphenylamino)-1,4-dioxo-1,4-dihydronaphthalen-2-yl)^15N-benzenesulfonamide]
